Test results as given in patent publication US8754068B2, “Modified C-3 betulinic acid derivatives as HIV maturation inhibitors” (priority 2010, dated 2014).

System: recombinant NL4-3 virus (Renilla luciferase in nef, Gag P373S)
Assay: HIV cell culture assay (luciferase reporter virus in MT-2 cells)
Format: cell-based
Conditions: NL43
Procedure: HIV cell culture assay—MT-2 cells and 293T cells were obtained from the NIH AIDS Research and Reference Reagent Program. MT-2 cells were propagated in RPMI 1640 media supplemented with 10% heat inactivated fetal bovine serum, […]. The 293T cells were propagated in DMEM media supplemented with 10% heat inactivated fetal bovine serum (FBS), 100 units/ml penicillin G and 100 μg/ml streptomycin. The proviral DNA clone of NL4-3 was obtained from the NIH AIDS Research and Reference Reagent Program. A recombinant NL4-3 virus, in which a section of the nef gene from NL4-3 was replaced with the Renilla luciferase gene, was used as a reference virus. In addition, residue Gag P373 was converted to P373S. Briefly, the recombinant virus was prepared by transfection of the altered proviral clone of NL4-3. Transfections were performed in 293T cells using LipofectAMINE PLUS from Invitrogen (Carlsbad, Calif.), according to manufacturer's instruction. The virus was titered in MT-2 cells using luciferase enzyme activity as a marker. Luciferase was quantitated using the Dual Luciferase kit from Promega (Madison, Wis.), with modifications to the manufacturer's protocol. The diluted Passive Lysis solution was pre-mixed with the re-suspended Luciferase Assay Reagent and the re-suspended Stop & Glo Substrate (2:1:1 ratio). Fifty (50) μL of the mixture was added to each aspirated well on assay plates and luciferase activity was measured immediately on a Wallac TriLux (Perkin-Elmer). Antiviral activities of inhibitors toward the recombinant virus were quantified by measuring luciferase activity in cells infected for 4-5 days with NLRluc recombinants in the presence serial dilutions of the inhibitor. Table 1 is the key for the data in Table 2.

## C=C(C)[C@@H]1CC[C@]2(C(=O)O)CC[C@]3(C)[C@H](CC[C@@H]4[C@@]5(C)CC=C(c6ccc(C7(C(=O)O)CC7)cc6)C(C)(C)[C@@H]5CC[C@]43C)[C@@H]12 [Example 4c, (1R,3aS,5aR,5bR,7aR,11aS,11bR,13aR,13bR)-9-(4-(1-carboxycyclopropyl)phenyl)-5a,5b,8,8,11a-pentamethyl-1-(prop-1-en-2-yl)-2,3,3a,4,5,5a,5b,6,7,7a,8,11,11a,11b,12,13,13a,13b-octadecahydro-1H-cyclopenta[a]chrysene-3a-carboxylic acid]
  EC50: < 1000 nM

## C=C(C)[C@@H]1CC[C@]2(CO)CC[C@]3(C)[C@H](CC[C@@H]4[C@@]5(C)CC=C(c6ccc(C(=O)O)s6)C(C)(C)[C@@H]5CC[C@]43C)[C@@H]12 [Example 5c, 5-((1R,3aS,5aR,5bR,7aR,11aS,11bR,13bR)-3a-(hydroxymethyl)-5a,5b,8,8,11a-pentamethyl-1-(prop-1-en-2-yl)-2,3,3a,4,5,5a,5b,6,7,7a,8,11,11a,11b,12,13,13a,13b-octadecahydro-1H-cyclopenta[a]chrysen-9-yl)thiophene-2-carboxylic acid]
  EC50: 230 nM

## C=C(C)[C@@H]1CC[C@]2(CO)CC[C@]3(C)[C@H](CC[C@@H]4[C@@]5(C)CC=C(c6ccc(C(=O)O)c(OC)c6)C(C)(C)[C@@H]5CC[C@]43C)[C@@H]12 [Example 5o, 4-((1R,3aS,5aR,5bR,7aR,11aS,11bR,13aR,13bR)-3a-(hydroxymethyl)-5a,5b,8,8,11a-pentamethyl-1-(prop-1-en-2-yl)-2,3,3a,4,5,5a,5b,6,7,7a,8,11,11a,11b,12,13,13a,13b-octadecahydro-1H-cyclopenta[a]chrysen-9-yl)-2-methoxybenzoic acid]
  EC50: 500 nM

## C=C(C)[C@@H]1CC[C@]2(CO)CC[C@]3(C)[C@H](CC[C@@H]4[C@@]5(C)CC=C(c6ccc(C(=O)O)cn6)C(C)(C)[C@@H]5CC[C@]43C)[C@@H]12 [Example 5u, 6-((1R,3aS,5aR,5bR,7aR,11aS,11bR,13aR,13bR)-3a-(hydroxymethyl)-5a,5b,8,8,11a-pentamethyl-1-(prop-1-en-2-yl)-2,3,3a,4,5,5a,5b,6,7,7a,8,11,11a,11b,12,13,13a,13b-octadecahydro-1H-cyclopenta[a]chrysen-9-yl)nicotinic acid]
  EC50: < 1000 nM

## C=C(C)[C@@H]1CC[C@]2(CO)CC[C@]3(C)[C@H](CC[C@@H]4[C@@]5(C)CC=C(c6ccc(C(=O)O)cc6F)C(C)(C)[C@@H]5CC[C@]43C)[C@@H]12 [Example 5k, 3-fluoro-4-((1R,3aS,5aR,5bR,7aR,11aS,11bR,13aR,13bR)-3a-(hydroxymethyl)-5a,5b,8,8,11a-pentamethyl-1-(prop-1-en-2-yl)-2,3,3a,4,5,5a,5b,6,7,7a,8,11,11a,11b,12,13,13a,13b-octadecahydro-1H-cyclopenta[a]chrysen-9-yl)benzoic acid]
  EC50: < 1000 nM

## C=C(C)[C@@H]1CC[C@]2(CO)CC[C@]3(C)[C@H](CC[C@@H]4[C@@]5(C)CC=C(c6ccc(C(=O)O)c(Cl)c6)C(C)(C)[C@@H]5CC[C@]43C)[C@@H]12 [Example 5a, 2-chloro-4-((1R,3aS,5aR,5bR,7aR,11aS,11bR,13bR)-3a-(hydroxymethyl)-5a,5b,8,8,11a-pentamethyl-1-(prop-1-en-2-yl)-2,3,3a,4,5,5a,5b,6,7,7a,8,11,11a,11b,12,13,13a,13b-octadecahydro-1H-cyclopenta[a]chrysen-9-yl)benzoic acid]
  EC50: < 1000 nM

## C=C(C)[C@@H]1CC[C@]2(CO)CC[C@]3(C)[C@H](CC[C@@H]4[C@@]5(C)CC=C(c6cc(C(=O)O)[nH]n6)C(C)(C)[C@@H]5CC[C@]43C)[C@@H]12 [Example 8, 3-((1R,3aS,5aR,5bR,7aR,11aS,11bR,13aR,13bR)-3a-(hydroxymethyl)-5a,5b,8,8,11a-pentamethyl-1-(prop-1-en-2-yl)-2,3,3a,4,5,5a,5b,6,7,7a,8,11,11a,11b,12,13,13a,13b-octadecahydro-1H-cyclopenta[a]chrysen-9-yl)-1H-pyrazole-5-carboxylic acid]
  EC50: < 1000 nM

## C=C(C)[C@@H]1CC[C@]2(C(=O)O)CC[C@]3(C)[C@H](CC[C@@H]4[C@@]5(C)CC=C(c6ccc(C(=O)O)c(F)c6)C(C)(C)[C@@H]5CC[C@]43C)[C@@H]12 [Example 4d, (1R,3aS,5aR,5bR,7aR,11aS,11bR,13aR,13bR)-9-(4-carboxy-3-fluorophenyl)-5a,5b,8,8,11a-pentamethyl-1-(prop-1-en-2-yl)-2,3,3a,4,5,5a,5b,6,7,7a,8,11,11a,11b,12,13,13a,13b-octadecahydro-1H-cyclopenta[a]chrysene-3a-carboxylic acid]
  EC50: < 1000 nM

## C=C(C)[C@@H]1CC[C@]2(C(=O)O)CC[C@]3(C)[C@H](CC[C@@H]4[C@@]5(C)CC=C(c6ccc(C(=O)O)cc6)C(C)(C)[C@@H]5CC[C@]43C)[C@@H]12 [Example 2b, (1R,3aS,5aR,5bR,7aR,11aS,13aR,13bR)-9-(4-carboxyphenyl)-5a,5b,8,8,11a-pentamethyl-1-(prop-1-en-2-yl)-2,3,3a,4,5,5a,5b,6,7,7a,8,11,11a,11b,12,13,13a,13b-octadecahydro-1H-cyclopenta[a]chrysene-3a-carboxylic acid]
  EC50: < 1000 nM

## C=C(C)[C@@H]1CC[C@]2(CO)CC[C@]3(C)[C@H](CC[C@@H]4[C@@]5(C)CC=C(c6ccc(-c7nn[nH]n7)cc6)C(C)(C)[C@@H]5CC[C@]43C)[C@@H]12 [Example 5l, ((1R,3aS,5aR,5bR,7aR,11aS,11bR,13aR,13bR)-9-(4-(2H-tetrazol-5-yl)phenyl)-5a,5b,8,8,11a-pentamethyl-1-(prop-1-en-2-yl)-2,3,3a,4,5,5a,5b,6,7,7a,8,11,11a,11b,12,13,13a,13b-octadecahydro-1H-cyclopenta[a]chrysen-3a-yl)methanol]
  EC50: > 1000 nM

## C=C(C)[C@@H]1CC[C@]2(C(=O)O)CC[C@]3(C)[C@H](CC[C@@H]4[C@@]5(C)CC=C(c6cccc(C(=O)O)c6)C(C)(C)[C@@H]5CC[C@]43C)[C@@H]12 [Example 2a, (1R,3aS,5aR,5bR,7aR,11aS,13aR,13bR)-9-(3-carboxyphenyl)-5a,5b,8,8,11a-pentamethyl-1-(prop-1-en-2-yl)-2,3,3a,4,5,5a,5b,6,7,7a,8,11,11a,11b,12,13,13a,13b-octadecahydro-1H-cyclopenta[a]chrysene-3a-carboxylic acid]
  EC50: > 1000 nM

## C[C@H]1[C@H](C)CC[C@]2(C(=O)O)CC[C@]3(C)C(=CC[C@@H]4[C@@]5(C)CC=C(c6ccc(C(=O)O)cc6)C(C)(C)[C@@H]5CC[C@]43C)[C@H]12 [Example 12, (1S,2R,4aS,6aS,6bR,8aR,12aS,12bR,14bS)-10-(4-carboxyphenyl)-1,2,6a,6b,9,9,12a-heptamethyl-1,2,3,4,4a,5,6,6a,6b,7,8,8a,9,12,12a,12b,13,14b-octadecahydropicene-4-a-carboxylic acid]
  EC50: < 1000 nM

## C=C(C)[C@@H]1CC[C@]2(CO)CC[C@]3(C)[C@H](CC[C@@H]4[C@@]5(C)CC=C(c6ccc(C(=O)O)cc6)C(C)(C)[C@@H]5CC[C@]43C)[C@@H]12 [Example 5b, 4-((1R,3aS,5aR,5bR,7aR,11aS,11bR,13bR)-3a-(hydroxymethyl)-5a,5b,8,8,11a-pentamethyl-1-(prop-1-en-2-yl)-2,3,3a,4,5,5a,5b,6,7,7a,8,11,11a,11b,12,13,13a,13b-octadecahydro-1H-cyclopenta[a]chrysen-9-yl)benzoic acid]
  EC50: < 1000 nM
